In brackets after ≈: the same amount, converted by molar mass.
The compounds below were run on MRSA 43300 (assay: Antibacterial activity, NCCLS dilution method (Table 9)). Conditions: Staphylococcus aureus, MRSA, MRSA 43300; dilution method; labels marked a tested as a mixture of diastereomers; read-out: MRSA 43300 MIC.
Assay type: cell-based, S. aureus
Text: NCCLS standards for antimicrobial susceptibility testing using the dilution method were followed. See: Performance Standards for Antimicrobial Susceptibility Testing; Fourteenth Informational Supplement. NCCLS Document M100-S14 (ISBN 1-56238-516-X), 2004. NCCLS, 940 West Valley Road, Suite 1400, Wayne, Pa. 19087-1898 USA, 2004; Methods for Dilution Antimicrobial Susceptibility Tests for Bacteria that Grow Aerobically; Approved Standard—Sixth Edition. NCCLS document M7-A6 (IBSBN 1-56238-486-4), NCCLS, 940 West Valley Road, Suite 1400, Wayne, Pa. 19087-1898 USA, 2003, which are hereby incorporated by reference in their entirety.

With `COc1ccc(CNC(=O)c2c(C)cc3c(c2O)[C@]2(O)C(=O)c4cc5c(c(O)c4C(=O)[C@]2(OC)[C@H](O)C3)C(=O)C=C(N[C@H]2O[C@@H](C)[C@H](OC)[C@@H](O)[C@H]2OC)C5=O)cc1` [Example 28, (6R,6aS,14aR)-1,6,8,14a-Tetrahydroxy-11-((3R,4R,5R,6S)-4-hydroxy-3,5-dimethoxy-6-methyltetrahydro-2H-pyran-2-ylamino)-6a-methoxy-N-(4-methoxybenzyl)-3-methyl-7,9-12-14-tetraoxo-5,6,6a,7,9,12,14,14a-octahydrobenzo[a]tetracene-2-carboxamide] as the compound, how does the MIC read?
Its MIC is 0.5 µg/mL (≈ 0.623 µM).

For `CO[C@@H]1[C@@H](O)[C@@H](OC)[C@@H](NC2=CC(=O)c3c(cc4c(c3O)C(=O)[C@]3(OC)[C@H](O)Cc5cc(C)c(C(=O)OCCCc6ccccc6)c(O)c5[C@]3(O)C4=O)C2=O)O[C@H]1C` [Example 33, (6R,6aS,14aR)-3-Phenylpropyl 1,6,8,14a-tetrahydroxy-11-((2S,3R,4R,5R,6S)-4-hydroxy-3,5-dimethoxy-6-methyltetrahydro-2H-pyran-2-ylamino)-6a-methoxy-3-methyl-7,9,12,14-tetraoxo-5,6,6a,7,9,12,14,14a-octahydrobenzo[a]tetracene-2-carboxylate], which MIC is on record?
The MIC was 1 to 2 µg/mL (≈ 1.25 to 2.49 µM).

For `CCOC(=O)c1c(C)cc2c(c1O)[C@]1(O)C(=O)c3cc4c(c(O)c3C(=O)[C@]1(OC)[C@H](O)C2)C(=O)C=C(N[C@H]1O[C@@H](C)[C@H](OC)[C@@H](O)[C@H]1OC)C4=O` [Example 34, (6R,6aS,14aR)-Ethyl 1,6,8,14a-tetrahydroxy-11-((2S,3R,4R,5R,6S)-4-hydroxy-3,5-dimethoxy-6-methyltetrahydro-2H-pyran-2-ylamino)-6a-methoxy-3-methyl-7,9,12,14-tetraoxo-5,6,6a,7,9,12,14,14a-octahydrobenzo[a]tetracene-2-carboxylate], which MIC is on record?
The MIC was 0.008 to 0.016 µg/mL (≈ 0.0112 to 0.0225 µM).

With `CO[C@@H]1[C@@H](O)[C@@H](OC)[C@@H](NC2=CC(=O)c3c(cc4c(c3O)C(=O)[C@]3(OC)[C@H](O)Cc5cc(C)c(C(=O)OCC(C)C)c(O)c5[C@]3(O)C4=O)C2=O)O[C@H]1C` [Example 36] as the compound, how does the MIC read?
Its MIC is 0.12 µg/mL (≈ 0.162 µM).

Which MIC does the source give for `COC(=O)c1c(C)c(Br)c2c(c1O)[C@]1(O)C(=O)c3cc4c(c(O)c3C(=O)[C@]1(OC)[C@H](O)C2)C(=O)C=C(N[C@H]1O[C@@H](C)[C@H](OC)[C@@H](O)[C@H]1OC)C4=O` [Example 38, (6R,6aS,14aR)-Methyl 4-bromo-1,6,8,14a-tetrahydroxy-11-((2S,3R,4R,5R,6S)-4-hydroxy-3,5-dimethoxy-6-methyltetrahydro-2H-pyran-2-ylamino)-6a-methoxy-3-methyl-7,9,12,14-tetraoxo-5,6,6a,7,9,12,14,14a-octahydrobenzo[a]tetracene-2-carboxylate] here?
The MIC was 1 µg/mL (≈ 1.29 µM).

`COC(=O)c1c(C)c(Br)c2c(c1O)[C@]1(O)C(=O)c3cc4c(c(O)c3C(=O)[C@]1(OC)[C@H](O)C2)C(=O)C(Br)=C(N[C@H]1O[C@@H](C)[C@H](OC)[C@@H](O)[C@H]1OC)C4=O` [Example 39, (6R,6aS,14aR)-Methyl 4,10-dibromo-1,6,8,14a-tetrahydroxy-11-((2S,3R,4R,5R,6S)-4-hydroxy-3,5-dimethoxy-6-methyltetrahydro-2H-pyran-2-ylamino)-6a-methoxy-3-methyl-7,9,12,14-tetraoxo-5,6,6a,7,9,12,14,14a-octahydrobenzo[a]tetracene-2-carboxylate] was tested. Which MIC did it give?
The MIC was 2 µg/mL (≈ 2.34 µM).

`C/N=C1\C=C(N[C@H]2O[C@@H](C)[C@H](OC)[C@@H](O)[C@H]2OC)C(=O)c2cc3c(c(O)c21)C(=O)[C@]1(OC)[C@H](O)Cc2cc(C)c(C(=O)OC)c(O)c2[C@]1(O)C3=O` [Example 44, (6R,6aS,14aR,E)-Methyl 1,6,8,14a-tetrahydroxy-11-((2S,3R,4R,5R,6S)-4-hydroxy-3,5-dimethoxy-6-methyltetrahydro-2H-pyran-2-ylamino)-6a-methoxy-3-methyl-9-(methylimino)-7,12,14-trioxo-5,6,6a,7,9,12,14,14a-octahydrobenzo[a]tetracene-2-carboxylate] was tested. Which MIC did it give?
Its MIC is 1 to 2 µg/mL (≈ 1.41 to 2.81 µM).

For `COCC/N=C1\C=C(N[C@H]2O[C@@H](C)[C@H](OC)[C@@H](O)[C@H]2OC)C(=O)c2cc3c(c(O)c21)C(=O)[C@]1(OC)[C@H](O)Cc2cc(C)c(C(=O)OC)c(O)c2[C@]1(O)C3=O` [Example 46, (6R,6aS,14aR,E)-methyl 1,6,8,14a-tetrahydroxy-11-((2S,3R,4R,5R,6S)-4-hydroxy-3,5-dimethoxy-6-methyltetrahydro-2H-pyran-2-ylamino)-6a-methoxy-9-(2-methoxyethylimino)-3-methyl-7,12,14-trioxo-5,6,6a,7,9,12,14,14a-octahydrobenzo[a]tetracene-2-carboxylate], which MIC is on record?
Its MIC is 1 µg/mL (≈ 1.32 µM).

For `COCCC/N=C1\C=C(N[C@H]2O[C@@H](C)[C@H](OC)[C@@H](O)[C@H]2OC)C(=O)c2cc3c(c(O)c21)C(=O)[C@]1(OC)[C@H](O)Cc2cc(C)c(C(=O)OC)c(O)c2[C@]1(O)C3=O` [Example 47, (6R,6aS,14aR,E)-Methyl 1,6,8,14a-tetrahydroxy-11-((2S,3R,4R,5R,6S)-4-hydroxy-3,5-dimethoxy-6-methyltetrahydro-2H-pyran-2-ylamino)-6a-methoxy-9-(3-methoxypropylimino)-3-methyl-7,12,14-trioxo-5,6,6a,7,9,12,14,14a-octahydrobenzo[a]tetracene-2-carboxylate], which MIC is on record?
Its MIC is 1 to 2 µg/mL (≈ 1.3 to 2.6 µM).

With `COC(=O)c1c(C)cc2c(c1O)[C@]1(O)C(=O)c3cc4c(c(O)c3C(=O)[C@]1(OC)[C@H](O)C2)/C(=N/CCCO)C=C(N[C@H]1O[C@@H](C)[C@H](OC)[C@@H](O)[C@H]1OC)C4=O` [Example 48, (6R,6aS,14aR,E)-Methyl 1,6,8,14a-tetrahydroxy-11-((2S,3R,4R,5R,6S)-4-hydroxy-3,5-dimethoxy-6-methyltetrahydro-2H-pyran-2-ylamino)-9-(3-hydroxypropylimino)-6a-methoxy-3-methyl-7,12,14-trioxo-5,6,6a,7,9,12,14,14a-octahydrobenzo[a]tetracene-2-carboxylate] as the compound, how does the MIC read?
Its MIC is 1 µg/mL (≈ 1.32 µM).

`CO/N=C1/[C@@H](OC)[C@H](C)O[C@H](NC2=CC(=O)c3c(cc4c(c3O)C(=O)[C@]3(OC)[C@H](O)Cc5cc(C)c(C(=O)OC)c(O)c5[C@]3(O)C4=O)C2=O)[C@@H]1OC` [Example 50, (6R,6aS,14aR)-Methyl 11-((2S,3R,5R,6S,Z)-3,5-dimethoxy-4-(methoxyimino)-6-methyltetrahydro-2H-pyran-2-ylamino)-1,6,8,14a-tetrahydroxy-6a-methoxy-3-methyl-7,9,12,14-tetraoxo-5,6,6a,7,9,12,14,14a-octahydrobenzo[a]tetracene-2-carboxylate] was tested. Which MIC did it give?
Its MIC is 0.25 µg/mL (≈ 0.345 µM).

Which MIC does the source give for `COC(=O)c1c(C)cc2c(c1O)[C@]1(O)C(=O)c3cc4c(c(O)c3C(=O)[C@]1(OC)[C@H](O)C2)C(=O)C=C(N[C@H]1O[C@@H](C)[C@H](OC)/C(=N/OCC(=O)O)[C@H]1OC)C4=O` [Example 51, 2-((Z)-((2S,3R,5R,6S)-3,5-Dimethoxy-2-methyl-6-((6R,6aS,14aR)-1,6,8,14a-tetrahydroxy-6a-methoxy-2-(methoxycarbonyl)-3-methyl-7,9,12,14-tetraoxo-5,6,6a,7,9,12,14,14a-octahydrobenzo[a]tetracen-11-ylamino)-2H-pyran-4(3H,5H,6H)-ylidene)aminooxy)acetic acid] here?
Its MIC is 8 µg/mL (≈ 10.4 µM).

Which MIC does the source give for `COC(=O)c1c(C)cc2c(c1O)[C@]1(O)C(=O)c3cc4c(c(O)c3C(=O)[C@]1(OC)[C@H](O)C2)C(=O)C=C(N[C@H]1O[C@@H](C)[C@H](OC)/C(=N/OCCN)[C@H]1OC)C4=O` [Example 52, (6R,6aS,14aR)-Methyl 11-((2S,3R,5R,6S,Z)-4-(2-aminoethoxyimino)-3,5-dimethoxy-6-methyltetrahydro-2H-pyran-2-ylamino)-1,6,8,14a-tetrahydroxy-6a-methoxy-3-methyl-7,9,12,14-tetraoxo-5,6,6a,7,9,12,14,14a-octahydrobenzo[a]tetracene-2-carboxylate] here?
Its MIC is 0.12 to 0.25 µg/mL (≈ 0.159 to 0.332 µM).

Which MIC does the source give for `COC(=O)c1c(C)cc2c(c1O)[C@]1(O)C(=O)c3cc4c(c(O)c3C(=O)[C@]1(OC)/C(=N/O)C2)C(=O)C=C(N[C@H]1O[C@@H](C)[C@H](OC)/C(=N/O)[C@H]1OC)C4=O` [Example 53, (6aS,14aR,E)-Methyl 1,8,14a-trihydroxy-6-(hydroxyimino)-11-((2S,3R,5R,6S,Z)-4-(hydroxyimino)-3,5-dimethoxy-6-methyltetrahydro-2H-pyran-2-ylamino)-6a-methoxy-3-methyl-7,9,12,14-tetraoxo-5,6,6a,7,9,12,14,14a-octahydrobenzo[a]tetracene-2-carboxylate] here?
Its MIC is 0.12 µg/mL (≈ 0.166 µM).

Which MIC does the source give for `COC(=O)c1c(C)cc2c(c1O)[C@]1(O)C(=O)c3cc4c(c(O)c3C(=O)[C@]1(OC)[C@H](O)C2)C(=O)C=C(N[C@H]1O[C@@H](C)[C@H](OC)[C@@H](O[C@@H]2O[C@H](CO)[C@@H](O)[C@H](O)[C@H]2O)[C@H]1OC)C4=O` [Example 54, (6R,6aS,14aR)-Methyl 11-((2S,3R,4R,5S,6S)-3,5-dimethoxy-6-methyl-4-((2S,3R,4S,5S,6R)-3,4,5-trihydroxy-6-(hydroxymethyl)tetrahydro-2H-pyran-2-yloxy)tetrahydro-2H-pyran-2-ylamino)-1,6,8,14a-tetrahydroxy-6a-methoxy-3-methyl-7,9,12,14-tetraoxo-5,6,6a,7,9,12,14,14a-octahydrobenzo[a]tetracene-2-carboxylate] here?
Its MIC is 2 µg/mL (≈ 2.33 µM).

Same assay, conditions: Staphylococcus aureus, MRSA, read-out: MRSA 43300 MIC

For `COC(=O)c1c(C)c(N)c2c(c1O)[C@]1(O)C(=O)c3cc4c(c(O)c3C(=O)[C@]1(OC)[C@H](O)C2)C(=O)C=C(N[C@H]1O[C@@H](C)[C@H](OC)[C@@H](O)[C@H]1OC)C4=O` [Example 42, (6R,6aS,14aR)-Methyl 4-amino-1,6,8,14a-tetrahydroxy-11-((2S,3R,4R,5R,6S)-4-hydroxy-3,5-dimethoxy-6-methyltetrahydro-2H-pyran-2-ylamino)-6a-methoxy-3-methyl-7,9,12,14-tetraoxo-5,6,6a,7,9,12,14,14a-octahydrobenzo[a]tetracene-2-carboxylate 2,2,2-trifluoroacetate], which MIC is on record?
The MIC was 2 to 4 µg/mL (≈ 2.81 to 5.61 µM).

— patent publication US8754054B2, “Antibacterial compounds, methods of making them, and uses thereof” (Albany Molecular Research, Inc., priority 2010, dated 2014)
